assay: Dissociation constant, pKa of compound; format: physicochemical

Compared with `C(C#Cc1ccncc1)#Cc1ccccc1`, `Nc1ccc(C#CC#Cc2ccccc2)cc1` is lower in pKa: 3.3 for the first, 2.7 for the second.

Compared with `Oc1c(F)cc(C#CC#Cc2ccccc2)cc1F`, `Oc1ccc(C#CC#Cc2ccccc2)cc1F` is higher in pKa: 6.2 for the first, 7.9 for the second.

First: Nc1cccc(C#CC#Cc2ccccc2)c1
Second: Nc1cc(C#CC#Cc2ccccc2)ccn1
The pKa of the first is lower: 3.5 for the first, 5 for the second.

Going from `C(C#Cc1c[nH]cn1)#Cc1ccccc1` to `Oc1ccc(C#CC#Cc2ccccc2)cc1`, the pKa rises from 4 to 9.5.

`Nc1ccc(C#CC#Cc2ccc(O)cc2)cc1` and `Nc1ccc(C#CC#Cc2ccccc2)c(O)c1` are within 0.2 log units of each other in pKa: 2.8 for the first, 2.7 for the second.

First: O=S(=O)(Nc1ccc(C#CC#Cc2ccccc2)cc1)C(F)(F)F
Second: Oc1ccc(C#CC#Cc2ccccc2)c(F)c1
The pKa of the first is lower: 4.1 for the first, 8.5 for the second.

From ChEMBL document CHEMBL5226301, “Toward Raman Subcellular Imaging of Endothelial Dysfunction” (J Med Chem, 2021)
